Assay results reported in patent US20020110838A1, “Methods for assessing muscle protein wasting and therapeutics therefor” (priority 2000, published 2002).
“Also recorded” adds a separate entry of the source. Where a SMILES comes first, the peptide text is derived from it. The star is where a group is joined. Cbz = O=C(OCc1ccccc1)*

How the values were obtained:
14 kDa actin fragment [1] = assay: Actin cleavage in L6 cell extracts incubated at 37° C. (immunoblot of 14 kDa actin fragment); type: biochemical, rat
Method: The cell extracts were incubated at 37° C. for various times before proteins were separated and subjected to Western blot analysis using commercially available, affinity-purified, polyclonal antibodies directed against the carboxy-terminus of actin.
To support this conclusion, we incubated lysates of L6 muscle cells at 37° C. with recombinant caspase 3 and then used Western blotting and detected the appearance of the actin fragment.
To test for involvement of the proteasome, we added MG132, an inhibitor of proteasome activity (ProScript, Inc. Cambridge, Mass.), and ATP to cell extracts before the 3 hr incubation at 37° C..
L6 muscles cells were washed and collected in ice cold PBS. Cells were swelled in hypotonic buffer (5 mM Tris pH 8.0, 1 mM 2-mercaptoethanol, 1% glycerol, 1 mM EDTA, 1 mM EGTA containing 0.1 mM phenylmethanesulfonyl fluoride (PMSF), leupeptin (5 μg/ml) and aprotinin (5 μg/ml) on ice for 30 minutes, and the cells were then gently homogenized with twenty strokes of a dounce homogenizer, with the materials being kept on ice. Homogenates were centrifuged at 3500 rpm (about 2000×g) for 10 minutes to remove nuclei and cell debris.
To assess for proteolytic cleavage of actin, extracts (20 μg of total protein) were incubated in 20 μl reaction volumes containing 25 mM Hepes (pH 7.5), 5 mM EDTA, 5 mM DTT for 3 h at 37° C. Reactions were terminated by adding Laemmli sample buffer, proteins were separated by SDS-PAGE, and immunoblot detection of actin fragments was carried out with an anti-actin antibody (Sigma).
The proteins were then transferred to ECL hybond membranes, and blots were incubated with anti-actin antibodies (1:500 dilution) in 5% milk in TTBS for 2 hours at 37° C. Bound primary antibodies were detected with goat anti-rabbit IgG antibody conjugated with HRRP and analyzed with ECL Detection Kit.

14 kDa actin fragment [2] = assay: 14 kDa actin peptide in intact L6 cells, measured after lysis; type: cell-based, rat; set-up: 14 kDa actin peptide in intact L6 cells activated with staurosporine and treated with proteasome inhibitor: dose or concentration left out as unconfirmed
Method: Actin cleavage was measured in lysates immediately after lysis.
This fragment (and others) are then rapidly degraded by the ubiquitin-proteasome system. […] The cells were then lysed and tested for the presence of the 14 kDa actin peptide.

L6 muscle cells [3] = assay: Apoptosis by Death ELISA / DNA fragmentation in L6 muscle cells; type: cell-based, rat; conditions: cultured L6 muscle cells, Death ELISA assay
L6 muscle cells [4] = assay: Degradation of endogenous proteins in cell extracts (release of free tyrosine); type: cell-based, rat; conditions: 50 nM staurosporine 3 h; extracts 37° C. 3 h; exogenous ATP added
Method: L6 muscle cells were treated as marked, and lysates were incubated at 37° C. for 3 hours in the presence or absence of ATP (2 mM). Degradation of endogenous protein was monitored by measuring release of acid-soluble tyrosine from cell protein.
With this method, protein degradation in extracts of control cells was slightly less than that in extracts from staurosporine-treated cells. However, the 3 hour incubation at 37° C. could limit ATP and impair activity of the ubiquitin-proteasome system.
Protein degradation in cell extracts was assessed by measuring the net release of free tyrosine because muscles neither synthesizes nor degrades this amino acid (18,19). For 3 hours, 50 μg of cell extract proteins were incubated at 37° C. in 0.1 ml of reaction buffer (20 mM Tris (pH 7.6), 2 mM DTT, 10 mM MgCl2, 100 mM KCl, 5% glycerol) with or without 2 MM ATP.
Trichloroacetic acid (10% final concentration) was added and the amount of free tyrosine released from proteins was measured spectrofluorometrically. Alternatively, total cell protein can be labeled by growth in the presence of one or more radioactive amino acids, e.g., ^14C-labeled or ^3H-labeled, and solubilization of radioactive label can be measured with the use of liquid scintillation counting.

caspase 3 = assay: Caspase 3 activation in L6 muscle cells (immunoblot); type: cell-based, rat; conditions: FIG. 4
From the text: The caspase-specific proteins were separated by SDS-PAGE and visualized by immunoblotting with polyclonal antibodies prepared in response to the N-terminus of caspase 3.
Subsequently, proteins were separated and subjected to Western blot analysis using affinity-purified, polyclonal antibodies against the carboxy-terminus of actin (Sigma St. Louis, Mo.).

14 kDa actin fragment [5] = assay: Serum starvation-induced actin cleavage in L6 muscle cells; type: cell-based, rat; conditions: for serum starvation-induced actin cleavage: serum-starved L6 cells, 10 nM hormone added
Method: Physiological conditions trigger caspase 3-mediated actin cleavage . To examine whether a catabolic condition that is known to accelerate protein degradation in muscle cells also involves actin cleavage, L6 muscle cells were activated by 24 h of serum starvation (0.5% FBS) and cell lysates were prepared. […] Additional evidence for involvement of apoptosis-associated pathways was obtained by activating L6 cells using the serum starvation procedure and then adding insulin or IGF I because either hormone can prevent serum starvation induced apoptosis (24,25).

epitrochlearis muscles = assay: Protein degradation in incubated epitrochlearis muscles; set-up: species or system rat; conditions: epitrochlearis muscles in Krebs-Henseleit bicarbonate buffer with vs without inhibitor
Method: Rats were treated with streptozotocin and compared to pair-fed, rats injected with saline as described (4,26). Crude muscle lysates were isolated from acutely diabetic and control rats and examined for the presence of the 14 kDa actin fragment. A significant amount of this actin fragment was present in the muscle of diabetic rats compared to results from control rats. Finally, epitrochlearis muscles were incubated in Krebs-Henseleit bicarbonate buffer with or without the addition of the cell-permeable inhibitor of caspase 3, Ac-DEVD-Cho.

Molecule: Nc1ncnc2c1ncn2[C@@H]1O[C@H](COP(=O)(O)OP(=O)(O)OP(=O)(O)O)[C@@H](O)[C@H]1O [ATP]
- amount of the 14 kDa peptide vs same extract without added ATP (14 kDa actin fragment [1]; 2 mM ATP added to extracts from staurosporine-treated cells, 3 hr, 37° C.): significantly reduced

Molecule: CC(C)C[C@@H](C=O)NC(=O)[C@H](CC(C)C)NC(=O)[C@H](CC(C)C)NC(=O)OCc1ccccc1 [MG132] (Cbz-Leu-Leu-Leu-aldehyde)
- amount of the 14 kDa actin peptide with proteasome inhibitor in presence of ATP (14 kDa actin fragment [1]; MG132 and ATP added to cell extracts before 3 hr incubation at 37° C.): greater amounts
- 14 kDa actin peptide in intact L6 cells activated with staurosporine and treated with proteasome inhibitor (14 kDa actin fragment [2]; 24 hr staurosporine plus MG 132): readily detected
- 14 kDa actin fragment in intact L6 cells, agent alone (14 kDa actin fragment [2]; L6 cells incubated 24 hr with single agent, then lysed): only a small amount

Molecule: CN[C@@H]1C[C@H]2O[C@@](C)([C@@H]1OC)n1c3ccccc3c3c4c(c5c6ccccc6n2c5c31)C(=O)NC4 [staurosporine]
- activation of apoptosis (L6 muscle cells [3]): activates apoptosis
- tyrosine release by extracts from staurosporine-treated cells vs control cell extracts (L6 muscle cells [4]): overall protein degradation is increased; also recorded: significantly higher
- induction of caspase 3 activity (caspase 3): induces caspase 3 activity

Molecule: Ac-DEVD-Cho
- appearance of the 14 kDa actin fragment with caspase 3 inhibitor (14 kDa actin fragment [1]; extracts of L6 cells treated with 10 nM staurosporine or serum starvation, 5 μM inhibitor for 3 hr): blocked the appearance of the actin fragment
- accumulation of the 14 kDa actin fragment after serum starvation (14 kDa actin fragment [5]; 24 h serum starvation (0.5% FBS), inhibitor added to cell lysate during incubation): blocked the accumulation
- reduction of the rate of muscle protein degradation (epitrochlearis muscles): 30%

Molecule: Arg-Ala
- amount of the 14 kDa actin fragment vs incubation with ATP alone (14 kDa actin fragment [1]; extracts of staurosporine-exposed L6 cells, 37° C., dipeptide (2 mM) and ATP): greater amount

Molecule: IGF I
- serum starvation-induced actin cleavage (14 kDa actin fragment [5]): effectively blocked

Molecule: insulin
- serum starvation-induced actin cleavage (14 kDa actin fragment [5]): effectively blocked
